Data from patent US20120207734A1 (priority 2011, published 2012).

Test system: DU-145 cells
Assay type: cell-based, human

## C=C1[C@@H](C)[C@H]2[C@H](Cc3ccccc3)NC(=O)[C@]23[C@H](OC(C)=O)/C=C/[C@@](C)(O)C(=O)[C@@H](C)C/C=C/[C@H]3[C@@H]1O [Cytochalasin-D]
  Effect on cell migration: did not migrate
  Relative Wound Density at 24 Hours, Mean: 3.3 ± 0.2
  Relative Wound Density at 24 Hours, Percent Relative to Media: 4%
